Consider 2 molecules from US20040253656A1, “Method for measuring inositol triphosphate” (priority 2003, published 2004).

One experiment deals with T1, PLCδ1/PH domain (Homo sapiens, UniProt P51178).
T1 sequence (P51178 21-130 limits assumed): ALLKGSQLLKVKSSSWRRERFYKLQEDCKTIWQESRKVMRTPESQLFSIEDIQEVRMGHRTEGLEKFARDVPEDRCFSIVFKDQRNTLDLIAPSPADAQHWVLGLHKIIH
Particulars: Lemmon & Ferguson (2001), read-out: affinity for IP3; cited from earlier work.

The test system of the next experiment is CHOM1 cells. Briefly: Cellular assay: IP3 levels in CHOM1 cells after carbachol, measured by scintillation proximity assay. The class given is cell-based. Conditions: 20 mM LiCl, Carbachol 0.01 mM to 100 mM, 1 minute, FIG. 3. On the procedure:
Standard curves were generated, by displacing labelled IP3, using a range of known concentrations of unlabelled IP3. Reactions were conducted in 96 well Corning NBS microplates in a total volume of […]. The assays were carried out using 10 mMTris/[…] pH 7.0 containing 400 ng of the biotinylated GST-tagged PLC, protein, 10 nCi [^3H] IP3 (spec activity 23.0 Ci/mmol, Amersham), and 1 mg of streptavidin coated PVT beads. Plates were incubated on ice for 2 hours and the plates then read using a Microbeta microplate scintillation counter. Standard curves were also run in the presence of dodecyl trimethyl ammonium bromide (DTAB; lysis reagent 1) and alpha-cyclodextrin (lysis reagent 2) at final concentrations of 0.3% lysis solution 1 and 2% lysis reagent 2 (FIG. 2).
Cells (CHOM1; 2×10^5) were seeded onto a 24 well tissue culture plate and grown overnight at 37° C., 95/5% (air/CO2). Following overnight incubation, media were aspirated and the cells were washed 1× with PBS (phosphate buffered saline). Fresh media were added containing 20 mM LiCl (final concentration of lithium chloride) and the cells were incubated for 30 minutes at 37° C. in a humidified atmosphere (95/5%, air/CO2). […] The plate was incubated on ice for approximately 16 hours and the plate counted using a Microbeta microplate scintillation counter at 1 minute/well.

As to `O=P(O)(O)O[C@@H]1[C@H](O)[C@H](O)[C@@H](OP(=O)(O)O)[C@H](OP(=O)(O)O)[C@H]1O` [IP3, Inositol 1,4,5-trisphosphate], the Kd on PLCδ1/PH domain is 200 nM. With `C[N+](C)(C)CCOC(N)=O` [carbachol, Carbachol], the “effect on cellular levels of IP3” value with CHOM1 cells was “stimulatory effect”.
